In brackets after ≈: the same amount, converted by molar mass. Several values for one entry are separate records, joined by “and”; a condition that tells them apart may be missing. Equal values may be shown once.
Assays:
[1] = DNDI: Cytotoxicity against L929 mouse fibroblasts, 72 hour.; assay type: toxicity, cell-based; conditions: mouse, L929 mouse fibroblasts
Trypanosoma brucei [2] = assay: DNDI: Inhibition of Human African Trypanosomiasis, SBRI 427, in vitro; assay type: functional, organism-based
Trypanosoma brucei [3] = assay: (§1) DNDI: Mean survival time in days (MSD) of mice after intraperitoneal injection of Human African Trypanosomiasis (HAT), EATRO 110, in vivo at 20 mg/kg/day for 4 days.; assay type: functional, Mus musculus
Trypanosoma brucei [4] = assay: as §1; assay type: functional, Mus musculus; remark: listed apart in the source
[5] = mouse, microsomes, 1 µM
Description: DNDI: in vitro intrinsic clearance in mouse liver microsomes at a concentration of 1uM

in vitro [6] = conditions: mouse
Description: DNDI: half life in mouse liver microsomes at a concentration of 1uM

Trypanosoma cruzi = assay: DNDI: Inhibition of Chagas Disease parasite Trypanosoma cruzi (Tulahuen LacZ, Clone C4), in vitro.; assay type: functional, organism-based
[7] = DNDI: Cytotoxicity against L929 mouse fibroblasts, CYTO-SP, 24 hour; assay type: toxicity, cell-based; conditions: mouse, L929 mouse fibroblasts
[8] = DNDI: Cytotoxicity against L-6 rat myoblasts from skeletal muscle cells; assay type: toxicity, cell-based, L6; conditions: L-6 rat skeletal muscle myoblasts
Trypanosoma brucei [9] = assay: DNDI: Inhibition of Human African Trypanosomiasis, Cross 22, in vitro; assay type: functional, organism-based
[10] = system: Trypanosoma brucei rhodesiense; assay: DNDI: Inhibition of Human African Trypanosomiasis (HAT), STIB 900, in vitro; assay type: functional, organism-based
Leishmania donovani = assay: DNDI: Inhibition of formation of Leishmania donovani (strain MHOM/ET/67/L82) axenic amastigotes, in vitro.; assay type: functional, organism-based
[11] = DNDI: Lipophilicity measured in Chromatographic hydrophobicity index (CHI) assay, pH 7.4; assay type: physicochemical; conditions: buffer
Plasmodium falciparum = assay: DNDI: Inhibition of the malaria parasite Plasmodium falciparum, in vitro; assay type: functional, organism-based; conditions: K1
[12] = DNDI: Solubility in phosphate buffered saline at pH7.4 measured by nephelometry at room temperature (NEPH-RT); assay type: physicochemical; conditions: pH 7.4
in vitro [13] = conditions: human
Description: DNDI: half life in human liver microsomes at a concentration of 1uM

in vitro [14] = conditions: human; remark: listed apart in the source
Description: DNDI: in vitro intrinsic clearance in human liver microsomes at a concentration of 1uM

[15] = DNDI: % of compound remaining in mouse S9 microsomes at a concentration of 1uM after 60 mins; assay type: ADME, subcellular, Liver, S9 fraction
[16] = DNDI: % of compound remaining in rat S9 microsomes at a concentration of 1uM; assay type: ADME, subcellular, Liver, S9 fraction
Trypanosoma brucei [17] = assay: DNDI: Inhibition of Human African Trypanosomiasis, EATRO 110, in vitro; assay type: functional, organism-based
[18] = DNDI: half life in human liver microsomes at a concentration of 10uM; assay type: ADME, Microsome
[19] = DNDI: in vitro intrinsic clearance in human liver microsomes at a concentration of 10uM; assay type: ADME, Microsome
[20] = DNDI: in vitro intrinsic clearance in mouse liver microsomes at a concentration of 10uM; assay type: ADME, Microsome; conditions: read-out: CLint in vitro
[21] = DNDI: half life in mouse liver microsomes at a concentration of 10uM; assay type: ADME, Microsome
[22] = DNDI: Solubility in phosphate buffered saline at pH7.4 measured by optical density (turbidimetry) at room temperature (OD-RT); assay type: physicochemical; conditions: pH 7.4
[23] = Trypanosoma brucei, SBRI 427, read-out: IC50
[24] = liver microsomes, CLint in vitro

| IC50 (Trypanosoma brucei [2]; [23]) [µg/mL] | half-life at 1 µM (in vitro [6]; liver microsomes, t (1 / 2)) [min] | Compound | IC50 at 72 h [1] [µg/mL] | MSD (Trypanosoma brucei [3]) [days] | CLint in vitro [5] [µL/min/mg] | IC50 at 24 h [7] [µg/mL] | chromatographic logD [11] | solubility kinetic [12] [µM] | further results |
| --- | --- | --- | --- | --- | --- | --- | --- | --- | --- |
| 2.02 (≈ 7.15 µM) | 11 | CC(C)(C)CN/C(=N\O)c1ccccc1-c1ccccc1 | – | – | 78 | > 50 | 4.67 | 50 (≈ 14.1 µg/mL) | half-life at 1 µM (in vitro [13]; liver microsomes, t (1 / 2)): 67 min; microsomal CLint at 1 µM (in vitro [14]; [24]): 13 µL/min/mg |
| > 5 | 25 | O/N=C(\NC1CCCCC1)c1cc(F)cc(F)c1 | – | – | 35 | > 50 | 4.26 | > 200 | half-life at 1 µM (in vitro [13]; liver microsomes, t (1 / 2)): 61 min; microsomal CLint at 1 µM (in vitro [14]; [24]): 14 µL/min/mg |
| 0.16 (≈ 0.492 µM) | 3.48 | Cc1ccc(Oc2ncccc2/C(=N/O)NC2CCCCC2)cc1 | > 10 | – | 244.61 | – | 4.32 | 25 (≈ 8.14 µg/mL) | remaining at 1 µM [16]: 0% |
| 0.58 (≈ 1.76 µM) | – | O/N=C(/NC1CCCCC1)c1cccnc1Oc1ccccc1F | > 10 | – | – | > 50 | 3.99 | – | IC50 (Trypanosoma cruzi): > 30 µg/mL; IC50 [8]: 54.3 µg/mL (≈ 165 µM); IC50 (Trypanosoma brucei [17]): 1.5 µg/mL (≈ 4.55 µM); IC50 [10]: 20.8 µg/mL (≈ 63.1 µM); IC50 (Leishmania donovani): 19.9 µg/mL (≈ 60.5 µM); IC50 (Plasmodium falciparum): > 5 µg/mL; half-life at 10 µM [18]: 185 min; CLint in vitro [19]: 16 µL/min/mg; microsomal CLint at 10 µM [20]: 275 µL/min/mg; half-life at 10 µM [21]: 10 min; solubility kinetic [22]: 50 µM (≈ 16.5 µg/mL) |
| 1.21 (≈ 3.43 µM) | 8 | CCOc1ccc(-c2nc(CNC3[C@H]4C[C@@H]5C[C@@H](C[C@H]3C5)C4)co2)cc1 (some centres undefined) | 6.6 (≈ 18.7 µM) | – | 102 | 43.2 (≈ 123 µM) | – | – | IC50 (Trypanosoma brucei [9]): 2.15 µg/mL (≈ 6.1 µM); IC50 (Trypanosoma brucei [17]): 0.86 µg/mL (≈ 2.44 µM); IC50 (Trypanosoma brucei [2]): 1.46 µg/mL and 2 µg/mL |
| 1.13 (≈ 2.9 µM) | – | O/N=C(\NC1CCCCC1)c1cccnc1Oc1ccccc1Br | – | – | – | > 50 | – | – | IC50 (Trypanosoma brucei [17]): 1.56 µg/mL (≈ 4 µM) |

Second part, the molecule before the results:

| Compound | IC50 (Trypanosoma brucei [2]; [23]) [µg/mL] | half-life at 1 µM (in vitro [6]; liver microsomes, t (1 / 2)) [min] | IC50 at 72 h [1] [µg/mL] | MSD (Trypanosoma brucei [3]) [days] | CLint in vitro [5] [µL/min/mg] | IC50 at 24 h [7] [µg/mL] | chromatographic logD [11] | solubility kinetic [12] [µM] | further results |
| --- | --- | --- | --- | --- | --- | --- | --- | --- | --- |
| CC(C)Oc1ccc(-c2nc(CNC3CCCCCC3)co2)cc1 | 2.39 (≈ 7.28 µM) | 68 | 6.77 (≈ 20.6 µM) | 4 | 12 | – | – | – | MSD (Trypanosoma brucei [4]): 4 days |
| CCCCc1ccc(-c2nc(CNC[C@@H]3CC[C@H]4C[C@@H]3C4(C)C)co2)cc1 | – | – | > 10 | 3.5 | – | > 50 | 6.68 | 3 (≈ 1.1 µg/mL) | IC50 (Trypanosoma cruzi): 2.61 µg/mL (≈ 7.12 µM); IC50 [8]: 2.89 µg/mL (≈ 7.88 µM); IC50 (Trypanosoma brucei [9]): 0.31 µg/mL (≈ 0.846 µM); IC50 [10]: 0.361 µg/mL (≈ 0.985 µM); IC50 (Leishmania donovani): 4.84 µg/mL (≈ 13.2 µM); IC50 (Plasmodium falciparum): 0.389 µg/mL (≈ 1.06 µM); half-life at 1 µM (in vitro [13]; liver microsomes, t (1 / 2)): 39 min; microsomal CLint at 1 µM (in vitro [14]; [24]): 22 µL/min/mg |
| CCCCCC(C)NCc1coc(-c2ccccc2Oc2ccccc2)n1 (centres undefined) | 2.98 (≈ 8.18 µM) | 4 | 6.3 (≈ 17.3 µM) | 4 | 220 | – | – | – | MSD (Trypanosoma brucei [4]): 5 days |
| CCCCCOc1ccc(-c2nc(CN[C@@H]3C[C@@H]4C[C@H]([C@H]3C)C4(C)C)co2)cc1 | 0.12 (≈ 0.303 µM) | 14 | < 3.13 | – | 60 | 38.9 (≈ 98.1 µM) | 6.5 | 2 (≈ 0.793 µg/mL) | MSD (Trypanosoma brucei [4]): 4.5 days |
| CC1CC(NCc2coc(-c3ccc(-c4ccccc4)cc3)n2)CC(C)(C)C1 (centres undefined) | 0.27 (≈ 0.721 µM) | 154 | < 3.13 | – | 6 | 7.93 (≈ 21.2 µM) | – | – | IC50 (Trypanosoma brucei [9]): 0.25 µg/mL (≈ 0.668 µM); IC50 (Trypanosoma brucei [2]): 0.24 µg/mL and 0.16 µg/mL; remaining at 1 h, 1 µM [15]: 112%; remaining at 1 µM [16]: 105% |
| O/N=C(\NC1CCCCC1)c1cccnc1 | > 5 | – | – | – | 12 | 50 (≈ 228 µM) | 2.82 | > 200 | half-life at 1 µM (in vitro [13]; microsomes): 277 min; microsomal CLint at 1 µM (in vitro [14]; microsomes): 3 µL/min/mg; half-life at 1 µM (in vitro [6]; microsomes): 70 min |
| CC1CC(NCc2coc(-c3ccc(OC(C)C)cc3)n2)CC(C)(C)C1 (centres undefined) | 0.79 (≈ 2.22 µM) | 33 | 1.51 (≈ 4.24 µM) | 4 | 26 | – | – | – | MSD (Trypanosoma brucei [4]): 3.5 days |
| CCCCc1ccc(-c2nc(CN[C@@H]3C[C@@H]4C[C@H]([C@H]3C)C4(C)C)co2)cc1 | – | – | 0.79 (≈ 2.16 µM) | 3.5 | – | > 50 | 6.6 | 6 (≈ 2.2 µg/mL) | IC50 (Trypanosoma cruzi): 1.4 µg/mL (≈ 3.82 µM); IC50 [8]: 3.21 µg/mL (≈ 8.76 µM); IC50 (Trypanosoma brucei [9]): 0.57 µg/mL (≈ 1.56 µM); IC50 [10]: 0.357 µg/mL (≈ 0.974 µM); IC50 (Leishmania donovani): 4.61 µg/mL (≈ 12.6 µM); IC50 (Plasmodium falciparum): 0.497 µg/mL (≈ 1.36 µM); half-life at 1 µM (in vitro [13]; microsomes, t (1 / 2)): 81 min; microsomal CLint at 1 µM (in vitro [14]; microsomes, CLint in vitro): 10 µL/min/mg; half-life at 1 µM (in vitro [6]; microsomes, t (1 / 2)): 13 min |

Reference: ChEMBL document CHEMBL1857833, “Screening and optimization of specific chemical series against human African Trypanosomiasis (HAT)”
